Assay results: the NIST ThermoML archive (doi:10.1016/j.jct.2017.07.016)
Numbers after ± are expanded uncertainties.

Settings: 333.15 K; 96.7 kPa; Liquid; Capillary tube (Ostwald / Ubbelohde) method

First: c1ccncc1 [pyridine]
Second: CCCCCCn1cc[n+](C)c1.[Cl-] [1-hexyl-3-methylimidazolium chloride]
The viscosity of the first is lower: 0.59 ± 0.089 mPa·s for the first, 453.59 ± 70 mPa·s for the second.

Going from `C[S+](C)[O-]` [dimethyl sulfoxide] to `CN(C)C=O` [dimethylformamide], the viscosity falls from 1.127 ± 0.17 mPa·s to 0.562 ± 0.084 mPa·s.

`CC(=O)N(C)C` [N,N-dimethylethanamide] showed a viscosity of 0.627 ± 0.094 mPa·s.

Same assay, conditions: 333.15 K; 96.7 kPa; Liquid; Vibrating tube method

Compared with `c1ccncc1` [pyridine], `CCCCCCn1cc[n+](C)c1.[Cl-]` [1-hexyl-3-methylimidazolium chloride] is higher in mass density: 942.72 ± 1.9 kg/m3 for the first, 1019.13 ± 2.2 kg/m3 for the second.

Going from `C[S+](C)[O-]` [dimethyl sulfoxide] to `CN(C)C=O` [dimethylformamide], the mass density falls from 1060.34 ± 2.1 kg/m3 to 910.44 ± 1.8 kg/m3.

In the case of `CC(=O)N(C)C` [N,N-dimethylethanamide], the mass density is reported as 904.16 ± 1.9 kg/m3.

Same assay, conditions: 338.15 K; 96.7 kPa; Liquid; Capillary tube (Ostwald / Ubbelohde) method

Going from `c1ccncc1` [pyridine] to `CCCCCCn1cc[n+](C)c1.[Cl-]` [1-hexyl-3-methylimidazolium chloride], the viscosity rises from 0.56 ± 0.084 mPa·s to 327.52 ± 50 mPa·s.

Going from `C[S+](C)[O-]` [dimethyl sulfoxide] to `CN(C)C=O` [dimethylformamide], the viscosity falls from 1.056 ± 0.16 mPa·s to 0.537 ± 0.081 mPa·s.

In the case of `CC(=O)N(C)C` [N,N-dimethylethanamide], the viscosity is reported as 0.598 ± 0.09 mPa·s.

Same assay, conditions: 338.15 K; 96.7 kPa; Liquid; Vibrating tube method

First: c1ccncc1 [pyridine]
Second: CCCCCCn1cc[n+](C)c1.[Cl-] [1-hexyl-3-methylimidazolium chloride]
The mass density of the first is lower: 937.6 ± 1.9 kg/m3 for the first, 1016.38 ± 2.2 kg/m3 for the second.

First: C[S+](C)[O-] [dimethyl sulfoxide]
Second: CN(C)C=O [dimethylformamide]
The mass density of the first is higher: 1055.34 ± 2.1 kg/m3 for the first, 905.6 ± 1.8 kg/m3 for the second.

`CC(=O)N(C)C` [N,N-dimethylethanamide] gave a mass density of 899.53 ± 1.9 kg/m3.

Same assay, conditions: 343.15 K; 96.7 kPa; Liquid; Capillary tube (Ostwald / Ubbelohde) method

First: c1ccncc1 [pyridine]
Second: CCCCCCn1cc[n+](C)c1.[Cl-] [1-hexyl-3-methylimidazolium chloride]
The viscosity of the first is lower: 0.533 ± 0.08 mPa·s for the first, 243.04 ± 37 mPa·s for the second.

Compared with `C[S+](C)[O-]` [dimethyl sulfoxide], `CN(C)C=O` [dimethylformamide] is lower in viscosity: 0.989 ± 0.15 mPa·s for the first, 0.514 ± 0.077 mPa·s for the second.

Work on `CC(=O)N(C)C` [N,N-dimethylethanamide] yielded a viscosity of 0.567 ± 0.085 mPa·s.

Same assay, conditions: 343.15 K; 96.7 kPa; Liquid; Vibrating tube method

Compared with `c1ccncc1` [pyridine], `CCCCCCn1cc[n+](C)c1.[Cl-]` [1-hexyl-3-methylimidazolium chloride] is higher in mass density: 932.46 ± 1.9 kg/m3 for the first, 1013.65 ± 2.2 kg/m3 for the second.

Going from `C[S+](C)[O-]` [dimethyl sulfoxide] to `CN(C)C=O` [dimethylformamide], the mass density falls from 1050.35 ± 2.1 kg/m3 to 900.74 ± 1.8 kg/m3.

`CC(=O)N(C)C` [N,N-dimethylethanamide] showed a mass density of 894.87 ± 1.9 kg/m3.

Same assay, conditions: 348.15 K; 96.7 kPa; Liquid; Capillary tube (Ostwald / Ubbelohde) method

First: c1ccncc1 [pyridine]
Second: CCCCCCn1cc[n+](C)c1.[Cl-] [1-hexyl-3-methylimidazolium chloride]
The viscosity of the first is lower: 0.507 ± 0.076 mPa·s for the first, 183.45 ± 28 mPa·s for the second.

Compared with `C[S+](C)[O-]` [dimethyl sulfoxide], `CN(C)C=O` [dimethylformamide] is lower in viscosity: 0.931 ± 0.14 mPa·s for the first, 0.493 ± 0.074 mPa·s for the second.

`CC(=O)N(C)C` [N,N-dimethylethanamide] showed a viscosity of 0.541 ± 0.081 mPa·s.

Same assay, conditions: 348.15 K; 96.7 kPa; Liquid; Vibrating tube method

Going from `c1ccncc1` [pyridine] to `CCCCCCn1cc[n+](C)c1.[Cl-]` [1-hexyl-3-methylimidazolium chloride], the mass density rises from 927.3 ± 1.9 kg/m3 to 1010.91 ± 2.2 kg/m3.

Compared with `C[S+](C)[O-]` [dimethyl sulfoxide], `CN(C)C=O` [dimethylformamide] is lower in mass density: 1045.34 ± 2.1 kg/m3 for the first, 895.87 ± 1.8 kg/m3 for the second.

`CC(=O)N(C)C` [N,N-dimethylethanamide] gave a mass density of 890.19 ± 1.9 kg/m3.

Same assay, conditions: 353.15 K; 96.7 kPa; Liquid; Capillary tube (Ostwald / Ubbelohde) method

Going from `c1ccncc1` [pyridine] to `CCCCCCn1cc[n+](C)c1.[Cl-]` [1-hexyl-3-methylimidazolium chloride], the viscosity rises from 0.485 ± 0.073 mPa·s to 140.06 ± 21 mPa·s.

First: C[S+](C)[O-] [dimethyl sulfoxide]
Second: CN(C)C=O [dimethylformamide]
The viscosity of the first is higher: 0.878 ± 0.13 mPa·s for the first, 0.473 ± 0.071 mPa·s for the second.

Compound `CC(=O)N(C)C` [N,N-dimethylethanamide] has a viscosity of 0.516 ± 0.078 mPa·s.

Same assay, conditions: 353.15 K; 96.7 kPa; Liquid; Vibrating tube method

Compared with `c1ccncc1` [pyridine], `CCCCCCn1cc[n+](C)c1.[Cl-]` [1-hexyl-3-methylimidazolium chloride] is higher in mass density: 922.12 ± 1.9 kg/m3 for the first, 1008.18 ± 2.2 kg/m3 for the second.

First: C[S+](C)[O-] [dimethyl sulfoxide]
Second: CN(C)C=O [dimethylformamide]
The mass density of the first is higher: 1040.33 ± 2.1 kg/m3 for the first, 890.98 ± 1.8 kg/m3 for the second.

`CC(=O)N(C)C` [N,N-dimethylethanamide] showed a mass density of 885.51 ± 1.9 kg/m3.
